Patent US20100160228A1, “METHOD FOR INHIBITING OR STIMULATING ANGIOGENESIS IN AN INDIVIDUAL” (VALTION TEKNILLINEN TUTKIMUSKESKUS, priority 2007, published 2010)

Assays:
Type in all cases: cell-based, human
HUVEC [1] = test: Time-lapse chemokinesis assay; conditions: HUVEC on gelatin, 4 hours time-lapse, peptide 200 nM, FIG. 5B
Experimental: (§1) FIG. 5. Controlled TCPTP activation inhibits VEGF-driven capillary formation, chemokinesis and chemotaxis. (A) HUVEC were cultured in fibrin gels and treated with or without VEGF and TAT peptides (200 nM). After 24 h the formation of capillary tubes was semiquantitatively scored. (B) HUVEC were plated on gelatin in the presence of the peptides (200 nM) or left untreated for 1 h. The cells were stimulated as indicated and migration of individual cells was tracked using time-lapse microscopy. Cumulative migration distance was plotted for randomly picked individual cells. (C) HUVEC were treated with 200 nM peptides and the transmigration assay was performed as in FIG. 3D. (D) HUVEC were transfected with siRNA against TCPTP or a control siRNA, and TCPTP expression was analysed with immunofluorescence. Equal exposures of TCPTP (green) and DAPI (blue) stainings are shown. 48 h post-transfection cells were subjected to transmigration assay as in […].
FIG. 9. TCPTP activation by α1-peptide inhibits VEGF induced chemokinesis. HUVEC were plated on gelatin in the presence of the peptides (200 nM) or left untreated for 1 h. The cells were stimulated as indicated and migration of individual cells was tracked using time-lapse microscopy. Representative images of individual cells overlayed with their migration patterns (different colours) at the indicated time points are shown.
Time-lapse chemokinesis assays. HUVEC were plated on gelatin-coated wells and allowed to attach for 1 h in the presence or absence of 200 nM α1TAT or ScrTAT and 20 ng/ml VEGF. Migration of individual cells was recorded at 5 min intervals for 4 h using 20× objective and digital video recording. The migration pathway of at least ten randomly picked cells was tracked using the Metamorph program. The cumulative migration distances were also plotted.

VEGFR2 = VEGFR2 internalization assay in HUVEC (microscopy, cold trypsin protection); conditions: for effect on VEGFR2 internalization in confluent cells: confluent HUVEC, peptide 200 nM, FIG. 10C
Experimental: (§2) FIG. 3. TCPTP activity controls VEGF-dependent responses in endothelial cells. (A) HUVEC were transfected with the constitutively active TCPTP (TC37) or vector control (pCG), stimulated or not with VEGF, and stained for VEGFR2 (red) and nuclei (blue) after fixation and permeabilization. Arrows indicate VEGFR2 vesicles. (B) HUVEC were treated as in (A) and subjected to trypsin digestion on ice. VEGFR2 protected from trypsin (=internalized pool) was detected by immunoblotting. The intensities of VEGFR2 bands were quantified and are expressed relative to pCG-VEGF control. A representative experiment out of 2 with similar results is shown. (C) HUVEC were transfected with no oligo, siRNA against TCPTP or a control siRNA, and TCPTP expression was measured using immunoblotting. Cells were treated with 80 ng/ml VEGF and proliferation of sparse cells plated on gelatin was assayed after 16 h using BrdU-based assay (mean±SD; n=4-6; *, p<0.05). (D) HUVEC were transfected as in (A) and chemotaxis towards VEGF was measured using a Transwell assay for 4 hours. Cells adhering to the bottom of the filter were fixed and stained with crystal violet. Number of migrated cells was counted (mean±SEM, n=3).
FIG. 7. TCPTP activation through the cytoplasmic domain of α1 integrin inhibits internalization of VEGFR2. […] VEGFR2 staining in the perinuclear area of cells (mean±SEM, n=30) was analyzed from blinded samples using densitometry and scored from 0 to 4 (0=no staining, 4=highest expression). […] VEGFR2 protected from trypsin (=internalized pool) was detected by immunoblotting. The intensity of VEGFR2 bands was quantified using densitometry and expressed as arbitrary units. […]
FIG. 10. […] (B) Confluent HUVEC on gelatin were treated with VEGF in the presence or absence of α1TAT or ScrTAT peptide and the number of live cells was detected using WST-1 reagent (mean±SD, n=3). […] The intensity of VEGFR2 bands was quantitated using densitometry (a representative experiment out of 3 with similar results is shown).
VEGFR2 internalization assay. […] The amount of VEGFR2 in each sample was analyzed using immunoblotting.

HUVEC [2] = test: Survival of confluent HUVEC (WST-1); conditions: confluent HUVEC on gelatin, WST-1, FIG. 10B
Experimental: FIG. 10. […] (A) Serum-starved HUVEC were plated to confluency on gelatin and treated for 1 h with α1 integrin cytoplasmic tail fusion peptide (α1TAT) or TAT-scramble control fusion peptide (ScrTAT) (both at 200 nM) or not treated, followed by VEGF-induction (15 min) when indicated. Cell lysates were immunoblotted for phosphorylated VEGFR2 (or tubulin as a control). (B) Confluent HUVEC on gelatin were treated with VEGF in the presence or absence of α1TAT or ScrTAT peptide and the number of live cells was detected using WST-1 reagent (mean±SD, n=3). (C) α1TAT treatment has no effect on internalization of VEGFR2 in confluent HUVEC. HUVEC were plated to confluency on gelatin, stimulated or not with the TAT peptides (200 nM) and VEGF, and treated with trypsin on ice. Cells were lysed after inactivation of trypsin and the lysates were immunoblotted for detection of VEGFR2 protected from trypsin (=internalized pool). The intensity of VEGFR2 bands was quantitated using densitometry (a representative experiment out of 3 with similar results is shown).
Cell proliferation and survival assays. The number of viable HUVEC was analyzed with WST-1 reagent (Roche). Cell proliferation was measured with BrdU assay (Cell proliferation ELISA Biotrak system, Amersham) from siRNA-transfected HUVEC grown in RPMI1640+1% FBS+2 mM L-glutamine supplemented with 80 ng/ml VEGF.

HUVEC [3] = test: Transwell chemotaxis assay towards VEGF
Experimental: as §2, §1
Chemotaxis assays. HUVEC electroporated with the DNA or siRNA or non-transfected HUVEC were treated with 200 nM α1TAT, ScrTAT or left untreated for 1 h. Transwell filters (8 μm pore size, Costar, Cambridge, Mass.) were coated with gelatin and medium (RPMI, 4 mM L-glutamine, 10% FBS) and VEGF (100 ng/ml) were added to the lower chamber. Cells were harvested from the culture plates, and transferred into the Transwell inserts (4×10^5 cells/well) in RPMI with 0.2% soybean trypsin inhibitor. […] The inserts were fixed in 4% paraformaldehyde, cells stained with 0.5% crystal violet and the number of migrated cells was counted using a microscope.

[4] = HUVEC, 48 h post-transfection, FIG. 5D

| Sequence | inhibition of VEGF-induced chemokinesis (HUVEC [1]) | effect on VEGFR2 internalization in confluent cells (VEGFR2) | effect on survival of HUVEC in confluent cells (HUVEC [2]) | internalization of VEGFR2 in HUVEC (VEGFR2; subconfluent HUVEC, peptide 200 nM 1 h, VEGF 100 ng/ml 15 min, FIG. 7) | effect on VEGF induced chemotaxis of TCPTP siRNA-treated cells (HUVEC [3]; [4]) | effect on VEGF-induced migration of scrambled siRNA treated cells (HUVEC [3]; [4]) | inhibition of VEGF-induced chemotaxis of HUVEC (HUVEC [3]; peptide 200 nM, Transwell 4 h, FIG. 5C) |
| --- | --- | --- | --- | --- | --- | --- | --- |
| YGRKKRRQRRRLKGWRFKLKPKFKEMK (SEQ ID NO 8) [ScrTAT, reference compound] | no significant effect | no effects | no effects | – | – | – | – |
| YGRKKRRQRRRWKLGFFKRPLKKKMEK (SEQ ID NO 3) [α1TAT] | 76±4% | no effects | no effects | specifically inhibited | no inhibitory effects | effectively inhibited | inhibited |
